Test results: patent publication EP4227307A1 (Genzyme Corporation, priority 2022, dated 2023)
Counter-ions that a name gives are not always drawn.

Each compound was assayed against T1, human recombinant 6His-Nterm SHP2 full-length (Thr2-Arg593) (Homo sapiens, UniProt Q06124) (assay: SHP2 Phosphatase Assay (DiFMUP fluorescence)). Conditions: SHP2 0.2 nM pre-incubated with 100 nM bi-phosphorylated activating peptide; compound 1000-0.05 nM, 30 min pre-incubation; DiFMUP 20 µM, 45 min, room temperature; 10-concentration dose-response.
T1 construct: 6His-Nterm SHP2 full-length (Thr2-Arg593, R&D system); 6His (N); purchased R&D system
T1 sequence (Q06124 2-593): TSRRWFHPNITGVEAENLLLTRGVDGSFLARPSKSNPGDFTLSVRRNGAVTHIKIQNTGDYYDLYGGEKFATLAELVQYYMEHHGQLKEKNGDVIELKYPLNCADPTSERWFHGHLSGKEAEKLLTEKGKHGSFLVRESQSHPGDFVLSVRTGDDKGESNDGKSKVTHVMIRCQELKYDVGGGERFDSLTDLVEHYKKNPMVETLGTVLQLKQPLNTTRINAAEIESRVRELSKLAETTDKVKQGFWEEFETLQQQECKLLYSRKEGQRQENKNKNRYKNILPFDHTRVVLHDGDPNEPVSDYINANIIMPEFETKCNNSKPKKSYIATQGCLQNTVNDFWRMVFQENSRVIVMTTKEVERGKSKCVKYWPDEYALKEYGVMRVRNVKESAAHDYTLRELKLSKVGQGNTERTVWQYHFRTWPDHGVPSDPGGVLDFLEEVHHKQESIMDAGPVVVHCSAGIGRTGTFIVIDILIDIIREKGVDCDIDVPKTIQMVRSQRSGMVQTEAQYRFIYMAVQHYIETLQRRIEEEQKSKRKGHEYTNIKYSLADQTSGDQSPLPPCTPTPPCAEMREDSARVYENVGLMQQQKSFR
Format: biochemical
How it was run: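 SHP2 (0.2 nM) preactivated ≥10 min with 100 nM bis-phosphorylated peptide, then 30 min with compound (10 concentrations, 1000–0.05 nM) at room temperature, pH 7.2 HEPES buffer with DTT. DiFMUP (20 µM, added solution) reacted 45 min, pervanadate-stopped; fluorescence 350/450 nm. IC50 by 4-parameter logistic fit.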

SMILES	IC50 [nM]
Cc1nc(N2CCC3(CC2)Cc2ncsc2[C@H]3N)c2ccnn2c1-c1ccccc1F [Compound 75, (6S)-1'-[7-(2-fluorophenyl)-6-methyl-pyrazolo[1,5-a]pyrazin-4-yl]spiro[4,6-dihydrocyclopenta[d]thiazole-5,4'-piperidine]-6-amine hydrochloride]	7
Cc1nc(N2CCC3(CC2)Cc2ncccc2[C@H]3N)c2ccnn2c1-c1cc(C(=O)N(C)C)ccc1F [Compound 172, 4-fluoro-N,N-dimethyl-3-[6-methyl-4-[(5S)-5-aminospiro[5,7-dihydrocyclopenta[b]pyridine-6,4'-piperidine]-1'-yl]pyrazolo[1,5-a]pyrazin-7-yl]benzamide]	> 1000
Cc1nccc(-c2c(C)nc(N3CCC4(CC3)Oc3ncccc3[C@H]4N)c3ccnn23)c1Cl [Compound 15, (3R)-1'-[7-(3-chloro-2-methyl-4-pyridyl)-6-methyl-pyrazolo[1,5-a]pyrazin-4-yl]spiro[3H-furo[2,3-b]pyridine-2,4'-piperidine]-3-amine]	20
COc1ccc2c(c1)[C@@H](N)C1(CCN(c3nc(C)c(-c4ccnc(C)c4Cl)n4nccc34)CC1)C2 [Compound 10, (1S)-1'-[7-(3-chloro-2-methyl-4-pyridyl)-6-methyl-pyrazolo [1,5-a]pyrazin-4-yl]-6-methoxy-spiro[indane-2,4'-piperidine]-1-amine hydrochloride]	11
Cc1nc(N2CCC3(CC2)Cc2ncccc2[C@H]3N)c2ccnn2c1-c1ccccc1 [Compound 39, (5S)-1'-(6-methyl-7-phenyl-pyrazolo[1,5-a]pyrazin-4-yl)spiro[5,7-dihydrocyclopenta[b]pyridine-6,4'-piperidine]-5-amine]	5
[2H]c1c([2H])c([2H])c(-c2c(C)nc(N3CCC4(CC3)Cc3ncccc3[C@H]4N)c3ccnn23)c([2H])c1[2H] [Compound 57, (5S)-1'-[6-methyl-7-(2,3,4,5,6-pentadeuteriophenyl)pyrazolo [1,5-a]pyrazin-4-yl]spiro[5,7-dihydrocyclopenta[b]pyridine-6,4'-piperidine]-5-amine]	10
Cc1cc2c(cn1)CC1(CCN(c3nc(C)c(-c4ccnc(C)c4Cl)n4nccc34)CC1)[C@@H]2N [Compound 112, (5S)-1'-[7-(3-chloro-2-methyl-4-pyridyl)-6-methyl-pyrazolo[1,5-a]pyrazin-4-yl]-3-methyl-spiro[5,7-dihydrocyclopenta[c]pyridine-6,4'-piperidine]-5-amine hydrochloride]	5

The next lines start with the values.

IC50 [nM]	SMILES
27	Cc1nc(N2CCC3(CC2)Cc2ncccc2[C@H]3N)c2ccnn2c1-c1ccc(N)nc1 [Compound 177, (5S)-1'-[7-(6-amino-3-pyridyl)-6-methyl-pyrazolo[1,5-a]pyrazin-4-yl]spiro[5,7-dihydrocyclopenta[b]pyridine-6,4'-piperidine]-5-amine]
83	Cc1nc(N2CCC3(CC2)Cc2ncccc2[C@H]3N)c2ccnn2c1C1=CCOCC1 [Compound 196, (5S)-1'-[7-(3,6-dihydro-2H-pyran-4-yl)-6-methyl-pyrazolo[1,5-a]pyrazin-4-yl]spiro[5,7-dihydrocyclopenta[b]pyridine-6,4'-piperidine]-5-amine]
14	Cc1nccc(Sc2c(C)nc(N3CCC4(CC3)Cc3ncccc3[C@H]4N)c3ccnn23)c1F [Compound 229, (5S)-1'-[7-[(3-fluoro-2-methyl-4-pyridyl)sulfanyl]-6-methyl-pyrazolo[1,5-a]pyrazin-4-yl]spiro[5,7-dihydrocyclopenta[b]pyridine-6,4'-piperidine]-5-amine]
8	Cc1nc(N2CCC3(CC2)Cc2ccc(C#N)cc2[C@H]3N)c2ccnn2c1-c1cnn(C)c1C (single isomer, unassigned) [Compound 211]
> 1000	Cc1nc(N2CCC3(CC2)Cc2ncccc2[C@H]3N)c2ccnn2c1C1CC1 [Compound 210, (5S)-1'-(7-cyclopropyl-6-methyl-pyrazolo[1,5-a]pyrazin-4-yl)spiro[5,7-dihydrocyctopenta[b]pyridine-6,4'-piperidine]-5-amine]
